Source: patent publication US4829082A, “Pharmaceutical compositions for the treatment of skin diseases” (Nisshin Chemicals Co., Ltd., priority 1986, dated 1989)
Values joined by “and” are separate entries in the source; they are usually repeats but may differ in a detail not shown here. Identical values can stand only once.

Experiments:
[1] = test system: ulcer produced after zoster; assay: Zoster, human patient (Test Example 6); assay type: in vivo
Description: To an ulcer produced after zoster had occurred on the neck through the shoulder of a person was applied a gauze over which the same ointment as used in Test Example 2 had been spread.

[2] = test system: eczema craquele; assay: Eczema craquele (cracking and chaps), human patient (Test Example 10); assay type: in vivo; conditions: hydrophilic ointment containing 0.3% by weight of TOC ester
Description: [Eczema craquele (cracking and chaps)]

[3] = test system: eyes of rabbits; assay: Irritation on eyes of rabbits; assay type: in vivo; conditions: physiological salt suspensions containing 0.05% and 0.5% of TOC ester
Description: Irritation on eyes of rabbits

[4] = test system: rats; assay: Percutaneous subacute toxicity in rats; assay type: in vivo; conditions: lotions containing 0.5% and 1.5% of TOC ester
Description: Percutaneous subacute toxicity in rats
Tests were conducted for 30 days using lotions containing 0.5% and 1.5% of TOC ester, respectively.

[5] = test system: human being; assay: Chafe on human being (Patch test); assay type: in vivo; conditions: cream containing 0.1% and 0.3% of TOC ester
Description: Chafe on human being (Patch test)

[6] = test system: experimental bedsore; assay: Experimental bedsore of rabbits; assay type: in vivo, Japanese white male rabbits
Description: (Experimental bedsore of rabbits)
Japanese white male rabbits weighing 2.5-4.4 kg were used.
An experimental bedsore was formed on the rabbits in accordance with the methods of Kosiak (Arch. Phys. Med. Rehabil., Vbl. 40, 62-69, 1959) and Fukawa et al. (Applied Pharmacology, Vol. 23, No. 6, 999-1011, 1982). The rabbits were anethetized with Nembutal® and fixed so that the shaved right trochanteric region of the rabbits was held horizontally, a pressure of 500-600 mmHg/cm^2 was applied to 2 cm^2 area of the skin in the shaved region, and the rabbits were held for 5-10 hours to allow development of bedsore. Two days after application of the pressure, occurrence of bedsore was confirmed.
The affective rabbits were distributed to two groups. One group (5 rabbits) was coated on the surface of bedsore region with a lotion containing 0.5% by weight of TOC ester by a brush once a day (said lotion being prepared from 900 parts by weight of water, 95 parts by weight of ethanol and 5 parts by weight of TOC ester). The other control group (4 rabbits) was coated once a day with only the base of the lotion (mixture of 900 parts of weight of water and 95 parts by weight of ethanol). One week after the treatment, a sheet of Japanese paper was applied to the bedsore area occurred in each rabbit. The injured area of said bedsore was transferred to the paper according to the etching method, and the transferred areas were measured by means of a planimeter.

[7] = test system: burn ulcer; assay: Burn ulcer, human patient (Test Example 4); assay type: in vivo; conditions: same ointment as Test Example 2 (0.5%), after one week
[8] = test system: guinea pigs; assay: Appearance of skin allergy in guinea pigs (induction test); assay type: in vivo; conditions: challenge two weeks after sensitization, 0.1 ml acetone solution containing 0.05%, 0.10% and 0.20% of TOC ester
Description: Appearance of skin allergy in guinea pigs
Induction tests were conducted, wherein guinea pigs were sensitized with 0.1 ml of 30% chloroform solution, and two weeks after sensitization, the pigs were treated on the skin with 0.1 ml of acetone solution containing 0.05%, 0.10% and 0.20% of TOC ester, respectively.

[9] = test system: skin pruritus; assay: Skin pruritus, human patient (Test Example 7); assay type: in vivo; conditions: same ointment as Test Example 2 (0.5%)
[10] = test system: skin keratosis; assay: Skin keratosis, human patient (Test Example 8); assay type: in vivo; conditions: same ointment as Test Example 2 (0.5%), three days after treatment
[11] = test system: frostbite; assay: Frostbite, human patient (Test Example 5); assay type: in vivo; conditions: same ointment as Test Example 2 (0.5%), about one week
[12] = test system: housewife eczema; assay: Housewife eczema, human patient (Test Example 11); assay type: in vivo; conditions: same hydrophilic ointment as Test Example 10 (0.3%), in a week
[13] = test system: bedsore; assay: Bedsore, human patient (Test Example 2); assay type: in vivo; conditions: oil ointment containing 0.5% by weight of TOC ester on gauze
Description: An oil ointment containing 0.5% by weight of TOC ester spread on a gauze was applied to the bedsore areas occurred in the ischium and whirlbone of a person lying in bed for a long time suffering from injury of myelon, said gauze being embedded in a depressed region of deep ulcer of bedsore after crumpling the gauze into a ball, and being applied as it was to a superficial region of the ulcer. The gauze was exchanged once or twice a day.

[14] = Acute toxicity in mice; conditions: mouse, in vivo
[15] = test system: dermal ulcer; assay: Dermal ulcer occurred in a rheumatic patient (Test Example 3); assay type: in vivo, human; conditions: same ointment as Test Example 2 (0.5%)
Description: (Dermal ulcer occurred in a rheumatic patient)
The same ointment as used in Test Example 2 was applied directly or applied using a gauze over which said ointment had been spread, to a dermal ulcer occurred on a sacral region, sciatic tuber region, elbow head, inner and outer ankle regions and heel region of a person suffering from arthrorheumatism under hospital treatment.

[16] = General statement on toxicity, side effects and healing effect
[17] = test system: callosity; assay: Callosity, human patient (Test Example 9); assay type: in vivo; conditions: lotion containing 0.5% by weight of TOC ester, about two weeks

**Q.** With `CC(C=CC1=C(C)CCCC1(C)C)=CC=CC(C)=CC(=O)Oc1c(C)c(C)c2c(c1C)CCC(C)(CCCC(C)CCCC(C)CCCC(C)C)O2` (stereo not drawn) [TOC ester, tocopheryl retinoate] as the molecule, how does the “healing of the ulcer after zoster” value ([1]; same ointment as Test Example 2 (0.5%) on gauze, about one week) read?
**A.** a marked improvement in healing of the ulcer

**Q.** And the recurrence ([1]; same ointment as Test Example 2 (0.5%), six months after the healing)?
**A.** no recurrence was observed

**Q.** What about the adverse side-effects ([2]; during the period of treatment) of the same molecule?
**A.** no adverse side-effects were observed

**Q.** And the “healing of eczema craquele” value ([2]; one month)?
**A.** a marked improvement in healing of the disease

**Q.** And the “healing of eczema craquele” value ([2]; two months)?
**A.** the disease perfectly healed

**Q.** What about the irritation on eyes [3] of the same molecule?
**A.** no change was observed

**Q.** What about the “change in general symptoms, dermal symptoms and body weight” value ([4]; 30 days) of the same molecule?
**A.** no change in general symptoms, dermal symptoms and body weight

**Q.** And the “change in blood and physiological examinations, anatomical observation, wet weight of organs, and pathological histological examination” value ([4]; after 30 days)?
**A.** no change was observed at all

**Q.** What about the “rubor or expansion (patch test)” value [5] of the same molecule?
**A.** no rubor or expansion was observed at all

**Q.** What about the “Injured area difference, Average ± standard deviation” value ([6]; lotion containing 0.5% TOC ester group, 5 rabbits, one week, control 0.907 ± 0.292) of the same molecule?
**A.** 1.82 ± 0.213 cm2

**Q.** What about the “Injured area after one week” value ([6]; lotion containing 0.5% TOC ester once a day, individual rabbits) of the same molecule?
**A.** 1.30 cm2 and 0.98 cm2 and 0.70 cm2 and 0.09 cm2 and 0.23 cm2

**Q.** What about the “Injured area at the initiation of treatment” value ([6]; lotion containing 0.5% TOC ester, individual rabbits, before treatment) of the same molecule?
**A.** 2.68 cm2 and 3.01 cm2 and 1.95 cm2 and 2.20 cm2 and 2.56 cm2

**Q.** What about the “Injured area, Difference” value ([6]; lotion containing 0.5% TOC ester, individual rabbits, initiation minus after one week) of the same molecule?
**A.** 1.38 cm2 and 2.03 cm2 and 1.25 cm2 and 2.11 cm2 and 2.33 cm2

**Q.** And the “reduction in the injured area of bedsore” value ([6]; lotion containing 0.5% by weight of TOC ester, once a day, one week, 5 rabbits)?
**A.** marked reduction in the injured area of bedsore

**Q.** And the “healing of burn ulcer” value [7]?
**A.** a remarkable improvement in healing of the ulcer

**Q.** And the contact skin allergy [8]?
**A.** No contact skin allergy was observed

**Q.** And the itching sensation ([9]; one day after treatment)?
**A.** itching sensation ceased

**Q.** And the “healing of skin pruritus” value ([9]; three days after the treatment)?
**A.** the skin pruritus healed perfectly

**Q.** What about the “healing of skin keratosis” value [10] of the same molecule?
**A.** a marked improvement in healing of the disease

**Q.** And the healing of frostbite [11]?
**A.** an improvement in healing of frostbite

**Q.** And the “healing of housewife eczema” value [12]?
**A.** a marked improvement in healing of the disease

**Q.** What about the “bottom region of deep ulcer, buildup of flesh owing to granulation” value ([13]; about one month) of the same molecule?
**A.** marked buildup of flesh owing to granulation at the bottom region of deep ulcer

**Q.** What about the “improvement in cuticularization along the circumference of ulcer” value ([13]; about one month) of the same molecule?
**A.** a remarkable improvement in cuticularization

**Q.** And the “width of cuticularization along the circumference of ulcer” value ([13]; about one month)?
**A.** about 5 mm

**Q.** What about the “superficial region of ulcer, epidermization” value ([13]; after one week) of the same molecule?
**A.** epidermization was observed on the superficial region of ulcer

**Q.** And the “superficial region of ulcer, disappearance of sore and closure” value ([13]; two weeks thereafter)?
**A.** sore disappeared from the superficial region of ulcer, and the epidermis was formed to close the sore region

**Q.** What about the LD50 ([14]; im) of the same molecule?
**A.** > 2500 mg/kg

**Q.** What about the LD50 ([14]; ip) of the same molecule?
**A.** > 10000 mg/kg

**Q.** What about the LD50 ([14]; po) of the same molecule?
**A.** > 10000 mg/kg

**Q.** What about the LD50 ([14]; sc) of the same molecule?
**A.** > 2500 mg/kg

**Q.** What about the adverse side effects ([15]; during treatment period) of the same molecule?
**A.** No adverse side effects was observed

**Q.** What about the “proliferation of the granulation and epidermization” value ([15]; large ulcers, about three months) of the same molecule?
**A.** marked improvements in proliferation of the granulation and in epidermization

**Q.** What about the “proliferation of the granulation and epidermization” value ([15]; small ulcers, about two weeks) of the same molecule?
**A.** marked improvements in proliferation of the granulation and in epidermization

**Q.** What about the side effects [16] of the same molecule?
**A.** almost no side effects

**Q.** What about the toxicity [16] of the same molecule?
**A.** extremely low in toxicity

**Q.** What about the improvement of callosity [17] of the same molecule?
**A.** an improvement such as softening of the callosity
